Among the data in US9670204B2, “Compounds and pharmaceutical compositions thereof for the treatment of inflammatory disorders” (Galapagos NV, priority 2013, dated 2017) are IC50 values, retold here.

Molecules are shown by their SMILES. Bounds are passed on as bounds.

Assay [1] has as its target T1, hENPP2 (UniProtKB/SwissProt Q13822) (Homo sapiens (Human), UniProt Q13822). In words: hENPP2 biochemical assay, LPC as substrate. Particulars: LPC (palmitoyl 16:0) as substrate. The method in brief:
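Human ENPP2 in 50 mM Tris-HCl pH 8.5, 500 mM NaCl, 5 mM KCl, 10 mM CaCl2, 0.1% fatty-acid-free BSA, reacted 30 min at 37 °C with LPC 16:0 (150 µM solution added 1:1). Released choline measured via choline oxidase/peroxidase/TOOS/4-aminoantipyrine quinoneimine dye at 555 nm; IC50 reported.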

In assay [2] the target is T1, hENPP2. In words: fluorescent hENPP2 biochemical assay, FS-3 as substrate. To be noted: read-out: FS3-IC50. In a few lines:
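hENPP2 in 50 mM Tris-HCl pH 8.0, 250 mM NaCl, 5 mM KCl, 1 mM MgCl2, 1 mM CaCl2, 0.1% fatty-acid-free BSA, preincubated with compound 30 min at room temperature. The 0.75 μM FS-3 solution was added and the mixture incubated 30 min at 30° C. Fluorescence (ex 485/em 520 nm) gives IC50.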

For orientation: IC50 means the concentration at which inhibition is half-maximal. In the case of `CN(c1nc(-c2ccc(Cl)cc2)cs1)c1c(CC(F)(F)F)nc2ccc(C3=CCN(S(C)(=O)=O)CC3)cn12` [Compound 185, 4-(4-chlorophenyl)-N-methyl-N-(6-(1-(methylsulfonyl)-1,2,3,6-tetrahydropyridin-4-yl)-2-(2,2,2-tetrahydropyridin-4-yl)-2-(2,2,2-trifluoroethyl)imidazo [1,2-a]pyridin-3-yl) thiazol-2-amine], the IC50 in assay [1] is > 1000 nM; in assay [2] it was 0.01 to 100 nM.

`CCc1nc2ccc(C3=CCN(S(C)(=O)=O)C3)cn2c1N(C)c1nc(-c2ccc(Cl)cc2)cs1` [Compound 68, 4-(4-chlorophenyl)-N-(2-ethyl-6-(1-(methylsulfonyl)-2,5-dihydro-1H-pyrrol-3-yl)imidazo[1,2-a]pyridin-3-yl)-N-methylthiazol-2-amine]: the IC50 in assay [1] was > 1000 nM; in assay [2] it was 0.01 to 100 nM.

In the case of `CCc1nc2ccc(C3CCN(S(C)(=O)=O)CC3)cn2c1N(C)c1nc(-c2ccc(F)cc2)c(C(C)=O)s1` [Compound 105, 1-(2-((2-ethyl-6-(1-(methylsulfonyl)piperidin-4-yl)imidazo[1,2-a]pyridin-3-yl)(methyl)amino)-4-(4-fluorophenyl)thiazol-5-yl)ethanone], the IC50 in assay [1] was 100 to 500 nM; in assay [2], 0.01 to 100 nM.

On to `CCc1nc2ccc(N3CCN(C(=O)OC(C)(C)C)CC3=O)cn2c1N(C)c1nc(-c2ccc(F)cc2)cs1` [Compound 62, 4-(2-Ethyl-3-{[4-(4-fluoro-phenyl)-thiazol-2-yl]-methyl-amino}-imidazo[1,2-a]pyridin-6-yl)-3-oxo-piperazine-1-carboxylic acid tert-butyl est], for which the IC50 in assay [1] is > 1000 nM; in assay [2] it was 0.01 to 100 nM.

Turning to `CCc1nc2ccc(N3CCN(CC(=O)O)CC3)cn2c1N(C)c1nc(-c2ccc(F)cc2)cs1` [Compound 42, 2-(4-(2-ethyl-3-((4-(4-fluorophenyl)thiazol-2-yl)(methyl)amino)imidazo[1,2-a]pyridin-6-yl)piperazin-1-yl)acetic acid], the IC50 in assay [1] was > 1000 nM; in assay [2] it was 0.01 to 100 nM.

Take `CCc1nc2ccc(C3CCN(CC(=O)NC4CC4)CC3)cn2c1N(C)c1nc(-c2ccc(F)cc2)cs1` [Compound 194, N-cyclopropyl-2-(4-(2-ethyl-3-((4-(4-fluorophenyl)thiazol-2-yl)(methyl)amino)imidazo[1,2-a]pyridin-6-yl)piperidin-1-yl)acetamide]: the IC50 in assay [1] is > 1000 nM; in assay [2], 0.01 to 100 nM.

For `CCc1nc2ccc(N3CCN(S(=O)(=O)CC(N)=O)CC3)cn2c1N(C)c1nc(-c2ccc(F)cc2)cs1` [Compound 61, 2-(4-(2-ethyl-3-((4-(4-fluorophenyl)thiazol-2-yl)(methyl)amino)imidazo[1,2-a]pyridin-6-yl)piperazin-1-ylsulfonyl)acetamide], the values for the IC50 in assay [1] and in assay [2] were > 1000 nM and 0.01 to 100 nM, respectively.

Turning to `CCc1nc2ccc(C3=CCN(S(C)(=O)=O)CC3)cn2c1N(C)c1nc(-c2ccc(F)cc2)ns1` [Compound 199, N-(2-ethyl-6-(1-(methylsulfonyl)-1,2,3,6-tetrahydropyridin-4-yl)imidazo[1,2-a]pyridin-3-yl)-3-(4-fluorophenyl)-N-methyl-1,2,4-thiadiazol-5-amine], the IC50 in assay [1] is > 1000 nM; in assay [2], 100 to 500 nM.

`CCc1nc2ccc(C3=CCOCC3)cn2c1N(C)c1nc(-c2ccc(F)cc2)cs1` [Compound 220, N-(6-(3,6-dihydro-2H-pyran-4-yl)-2-ethylimidazo[1,2-a]pyridin-3-yl)-4-(4-fluorophenyl)-N-methylthiazol-2-amine]: the IC50 was > 1000 nM in assay [1] and 0.01 to 100 nM in assay [2].

Turning to `CCc1nc2ccc(C3CCN(S(C)(=O)=O)CC3)cn2c1N(C)c1nc(-c2ccc(OC)cc2)cs1` [Compound 82, N-(2-ethyl-6-(1-(methylsulfonyl)piperidin-4-yl)imidazo [1,2-a]pyridin-3-yl)-4-(4-methoxyphenyl)-N-methylthiazol-2-amine], the results for the IC50 in assay [1] and in assay [2] were > 1000 nM and 0.01 to 100 nM, respectively.
